Measurements as given in patent US20120270943A1 (priority 2011, published 2012).

Tests used:
water solubility = format: physicochemical
[1] = administration of D-aspartic acid hydrochloride and/or ethyl ester hydrochloride; format: in vivo; conditions: administration by ingestion, injection or nasal spray, 10 mg to 100 g per day
Procedure: The D-aspartic acid hydrochloride or D-aspartic acid ethyl ester hydrochloride are administered by ingestion of pills, capsules, powdered drink mixes, beverages, confectionaries, syrups, and/or chewable tablets, or by injection of an aqueous solution, or via a nasal spray.

humans = conditions: cited from earlier work
pituitary gland; testes = conditions: in vivo; cited from earlier work

water solubility (in words) (water solubility) | SMILES | LH and HGH levels [1] | libido and/or mood [1] | strength, muscle mass, endurance and rate of recovery [1] | testosterone [1] | LH levels (humans; oral, almost four (4) grams a day, men) | rise of testosterone, level greater than day zero (humans; oral, almost four (4) grams a day, peak on day twelve (12), twenty-three (23) men) [%] | levels of testosterone after discontinuation (humans; three (3) days after discontinuation) | effect in the testes upon testosterone production (pituitary gland; testes) | release of Luteinizing Hormone (LH) and Growth Hormone (GH) from the pituitary gland (pituitary gland; testes)
high water solubility | CCOC(=O)C[C@@H](N)C(=O)OCC.Cl [D-aspartic acid diethyl ester hydrochloride] | increase | improves/increases | increases | increase |  |  |  |  | 
 | Cl.N[C@H](CC(=O)O)C(=O)O [D-aspartic acid hydrochloride] | increase | improves/increases | increases | increase |  |  |  |  | 
 | N[C@H](CC(=O)O)C(=O)O [D-aspartic acid] |  |  |  |  | increased significantly | 42 | still significantly increased | direct stimulating effect | stimulate the release
